In US10543198B2 (Celgene Quanticel Research, Inc., priority 2014, dated 2020):

Molecular target: full-length human LSD1 (Homo sapiens (Human), UniProt O60341)
Assay: In Vitro Enzyme Inhibition Assay - LSD-1 (TR-FRET)
Assay type: biochemical
Settings: 0.1 nM LSD1, H3K4me1-biotin peptide
Method: This assay determines the ability of a test compound to inhibit LSD1 demethylase activity.
The enzymatic assay of LSD1 activity is based on Time Resolved-Fluorescence Resonance Energy Transfer (TR-FRET) detection.
The ability of the compounds disclosed herein to inhibit LSD1 activity was quantified and the respective IC50 value was determined.

| Structure (SMILES) | IC50 [nM] |
| --- | --- |
| N#Cc1ccc(-c2cc3c(ccn3C[C@H]3CCNC3)nc2-c2ccc(F)cc2)cc1 [Example 5, 4-[5-(4-fluorophenyl)-1-[[(3S)-pyrrolidin-3-yl]methyl]pyrrolo[3,2-b]pyridin-6-yl]benzonitrile] | < 100 |
| N#Cc1ccc(-c2cc3c(ccn3C[C@H]3CNCCO3)nc2-c2ccc(F)cc2)cc1 [Example 11, 4-[5-(4-fluorophenyl)-1-[[(2R)-morpholin-2-yl]methyl]pyrrolo[3,2-b]pyridin-6-yl]benzonitrile] | < 100 |
| N#Cc1ccc(-c2nc(N3CC[C@@H]4CNC[C@@H]4CC3)ncc2-c2ccc(F)cc2)cc1 [Example 24, 4-{2-[(3aR,8aS)-decahydropyrrolo[3,4-d]azepin-6-yl]-5-(4-fluorophenyl)pyrimidin-4-yl}benzonitrile] | < 100 |
| Cc1ccc(-c2nc3ccn(C[C@@H]4CCNC4)c3cc2-c2ccc(C#N)cc2)cc1 [Example 1, 4-[5-(4-methylphenyl)-1-[[(3R)-pyrrolidin-3-yl]methyl]pyrrolo[3,2-b]pyridin-6-yl]benzonitrile] | < 100 |
| N#Cc1ccc(-c2cc3c(ccn3C[C@H]3CCNC3)nc2N2CCOCC2)cc1 [Example 7, 4-[5-morpholin-4-yl-1-[[(3S)-pyrrolidin-3-yl]methyl]pyrrolo[3,2-b]pyridin-6-yl]benzonitrile] | < 100 |
| Cc1ccc(-c2cnc(N3CCC4CNCC4C3)nc2-c2ccc(C#N)cc2)cc1 (centres unmarked) [Example 22, 4-[5-(4-methylphenyl)-2-{octahydro-1H-pyrrolo[3,4-c]pyridin-5-yl}pyrimidin-4-yl]benzonitrile] | < 100 |
| N#Cc1ccc(-c2cc3c(ccn3C[C@@H]3CCNC3)nc2Cl)cc1 [Example 2, 4-[5-chloro-1-[[(3R)-pyrrolidin-3-yl]methyl]pyrrolo[3,2-b]pyridin-6-yl]benzonitrile] | 100 to 1000 |
| Cc1ccc(-c2nc3cnn(CC4CCNCC4)c3cc2-c2ccc(C#N)cc2)cc1 [Example 14, 4-[5-(4-methylphenyl)-1-(piperidin-4-ylmethyl)pyrazolo[4,3-b]pyridin-6-yl]benzonitrile] | < 100 |
| N#Cc1ccc(-c2nc(NC[C@H]3CCNC3)ncc2-c2ccc(Cl)cc2)cc1 [Example 19, 4-[5-(4-chlorophenyl)-2-{[(3S)-pyrrolidin-3-ylmethyl]amino}pyrimidin-4-yl]benzonitrile] | < 100 |
| Cc1ccc(-c2nc3ccn(C[C@H]4CNCCO4)c3cc2-c2ccc(C#N)cc2)cc1 [Example 10, 4-[5-(4-methylphenyl)-1-[[(2R)-morpholin-2-yl]methyl]pyrrolo[3,2-b]pyridin-6-yl]benzonitrile] | < 100 |
| Cc1ccc(-c2cnc(NC[C@H]3CCNC3)nc2-c2ccc(C#N)cc2)cc1 [Example 16, 4-[5-(4-methylphenyl)-2-{[(3S)-pyrrolidin-3-ylmethyl]amino}pyrimidin-4-yl]benzonitrile] | < 100 |
| Cc1ccc(-c2nc3ccn(CCCN)c3cc2-c2ccc(C#N)cc2)cc1 [Example 12, 4-[1-(3-aminopropyl)-5-(4-methylphenyl)pyrrolo[3,2-b]pyridine-6-yl]benzonitrile] | < 100 |
| Cc1ccc(-c2nc3cnn(CC4CCNC4)c3cc2-c2ccc(C#N)cc2)cc1 (centres unmarked) [Example 13, 4-[5-(4-methylphenyl)-1-(pyrrolidin-3-ylmethyl)pyrazolo[4,3-b]pyridin-6-yl]benzonitrile] | < 100 |
| Cc1ccc(-c2nc3ccn(C[C@H]4CCNC4)c3cc2-c2ccc(C#N)cc2)cc1 [Example 3, 4-[5-(4-methylphenyl)-1-[[(3S)-pyrrolidin-3-yl]methyl]pyrrolo[3,2-b]pyridin-6-yl]benzonitrile] | < 100 |
| N#Cc1ccc(-c2nc(NC[C@H]3CCNC3)ncc2-c2ccc(F)cc2)cc1 [Example 18, 4-[5-(4-fluorophenyl)-2-{[(3S)-pyrrolidin-3-ylmethyl]amino}pyrimidin-4-yl]benzonitrile] | < 100 |
| Cc1ccc(-c2cnc(N3C[C@H]4CNC[C@H]4C3)nc2-c2ccc(C#N)cc2)cc1 [Example 21, 4-{2-[(3aR,6aS)-octahydropyrrolo[3,4-c]pyrrol-2-yl]-5-(4-methylphenyl)pyrimidin-4-yl}benzonitrile] | < 100 |

The remaining lines, values ahead:

| IC50 [nM] | Structure (SMILES) |
| --- | --- |
| < 100 | Cc1ccc(-c2cnc(N3CCC4(CCNC4)C3)nc2-c2ccc(C#N)cc2)cc1 (centres unmarked) [Example 35, 4-(2-{2,7-diazaspiro[4.4]nonan-2-yl}-5-(4-methylphenyl)pyrimidin-4-yl)benzonitrile] |
| < 100 | Cc1ccc(-c2cnc(N3CCC4(CCNCC4)C3)nc2-c2ccc(C#N)cc2)cc1 [Example 36, 4-(2-{2,8-diazaspiro[4.5]decan-2-yl}-5-(4-methylphenyl)pyrimidin-4-yl)benzonitrile] |
| < 100 | Cc1ccc(-c2cnc(N3CCC4(CCCN4)CC3)nc2-c2ccc(C#N)cc2)cc1 [Example 40, 4-(2-{1,8-diazaspiro[4.5]decan-8-yl}-5-(4-methylphenyl)pyrimidin-4-yl)benzonitrile] |
| < 100 | Cc1ccc(-c2cc(NC[C@H]3CCNC3)nn2-c2ccc(C#N)cc2)cc1 [Example 44, 4-[5-(4-methylphenyl)-3-[[(3S)-pyrrolidin-3-yl]methylamino]pyrazol-1-yl]benzonitrile] |
| < 100 | Cc1ccc(-c2cnc(N3CCC4(CCNC4)CC3)nc2-c2ccc(C#N)cc2)cc1 [Example 39, 4-(2-{2,8-diazaspiro[4.5]decan-8-yl}-5-(4-methylphenyl)pyrimidin-4-yl)benzonitrile] |
| < 100 | Cc1ccc(-c2cnc(NC3CCNCC3)nc2-c2ccc(C#N)cc2)cc1 [Example 30, 4-[5-(4-methylphenyl)-2-[(piperidin-4-yl)amino]pyrimidin-4-yl]benzonitrile] |
| < 100 | Cc1ccc(-c2cnc(NCC3CCNCC3)nc2-c2ccc(C#N)cc2)cc1 [Example 32, 4-[5-(4-methylphenyl)-2-[(piperidin-4-ylmethyl)amino]pyrimidin-4-yl]benzonitrile] |
| < 100 | N#Cc1ccc(-c2nc(NC[C@H]3CCNC3)ncc2C#CC2CC2)cc1 [Example 26, 4-[5-(2-cyclopropylethynyl)-2-{[(3S)-pyrrolidin-3-ylmethyl]amino}pyrimidin-4-yl]benzonitrile] |
| < 100 | Cc1ccc(-c2cc(NCC3CCNCC3)nn2-c2ccc(C#N)cc2)cc1 [Example 46, 4-[5-(4-methylphenyl)-3-(piperidin-4-ylmethylamino)pyrazol-1-yl]benzonitrile] |
| < 100 | Cc1ccc(-c2cc(NC[C@@H]3CCNC3)nn2-c2ccc(C#N)cc2)cc1 [Example 45, 4-[5-(4-methylphenyl)-3-[[(3R)-pyrrolidin-3-yl]methylamino]pyrazol-1-yl]benzonitrile] |
| < 100 | Cc1ccc(-c2cc(NCC3CCNC3)nn2-c2ccc(C#N)cc2)cc1 (centres unmarked) [Example 43, 4-[5-(4-methylphenyl)-3-(pyrrolidin-3-ylmethylamino)pyrazol-1-yl]benzonitrile] |
| < 100 | N#Cc1ccc(-c2nc(NC[C@H]3CCNC3)ncc2-c2ccc(C(F)(F)F)cc2)cc1 [Example 25, 4-(2-{[(3S)-pyrrolidin-3-ylmethyl]amino}-5-[4-(trifluoromethyl)phenyl]pyrimidin-4-yl)benzonitrile] |
| < 100 | Cc1ccc(-c2cnc(NC3CCCNC3)nc2-c2ccc(C#N)cc2)cc1 (racemic) [Example 29, (±)-4-[5-(4-methylphenyl)-2-[(piperidin-3-yl)amino]pyrimidin-4-yl]benzonitrile] |
